Columns and labels:
[1] = tested on: MHH-CALL-2 (B-Lymphoblastic Leukemia); test: Bliss excess, mean over the matrix (fraction); higher = more synergy
Outline: (§1)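 Cell lines in DMEM/F12 or RPMI with 10% FBS were plated in 1536-well plates, held 24 hours at 37°C, 5% CO2, then given two-drug dose matrices for 72 hours (DMSO typically 0.2%). Viability was read by CellTiter-Glo 2.0 luminescence and scaled as inhibition from 0 (vehicle wells) to 1 (blank wells). Combination Emax is the second-highest inhibition in the matrix; Bliss excess is observed combination effect minus expected EA + EB − EA·EB, EA and EB being single-agent effects.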

[2] = tested on: CAL-72 (Osteosarcoma); test: combination Emax (second highest fraction inhibited in the dose matrix, 72 h); higher = more inhibition; extreme values may be limits of the assay
Outline: as §1

[3] = tested on: NCI-H524 (Small Cell Lung Carcinoma); test: as above
Outline: as §1

[4] = tested on: MHH-CALL-2 (B-Lymphoblastic Leukemia); test: as above
Outline: as §1

[5] = tested on: HeLa (Cervical Carcinoma); test: as above
Outline: as §1

[6] = tested on: GAMG (Glioblastoma); test: as above
Outline: as §1

[7] = tested on: LOXIMVI (Melanoma); test: as above
Outline: as §1

[8] = tested on: NCI-H2722 (Mesothelioma); test: as above
Outline: as §1

[9] = tested on: BE-13 (T-Lymphoblastic Leukemia); test: as above
Outline: as §1

[10] = tested on: CAL-33 (Oral Cavity Carcinoma); test: as above
Outline: as §1

[11] = tested on: NCI-H720 (Other Solid Carcinomas); test: Bliss excess, mean over the matrix (fraction); higher = more synergy
Outline: as §1

[12] = tested on: NCI-H720 (Other Solid Carcinomas); test: combination Emax (second highest fraction inhibited in the dose matrix, 72 h); higher = more inhibition; extreme values may be limits of the assay
Outline: as §1
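For Bliss excess, mean over the matrix in this document: after 72 h of two-drug dosing.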

SMILES	Bliss excess [1]	combination Emax [2]	combination Emax [3]	combination Emax [4]	combination Emax [5]	combination Emax [6]	combination Emax [7]	combination Emax [8]	combination Emax [9]	combination Emax [10]	Bliss excess [11]	combination Emax [12]
CN(CCO)CC[C@H](CSc1ccccc1)Nc1ccc(S(=O)(=O)NC(=O)c2ccc(N3CCC([C@@H](O)c4ccccc4-c4ccc(Cl)cc4)CC3)cc2)cc1S(=O)(=O)C(F)(F)F [AZD4320] + C[C@@H]1COCCN1C2=NC(=NC(=C2)C3(CC3)[S@](=N)(=O)C)C4=C5C=CNC5=NC=C4 [AZD6738] (first compound max 1 µM, 7x7, partner max 10 µM)	0.0042	0.932	0.939	0.921	0.717	0.694	0.892	0.503	1	0.964		
CN(CCO)CC[C@H](CSc1ccccc1)Nc1ccc(S(=O)(=O)NC(=O)c2ccc(N3CCC([C@@H](O)c4ccccc4-c4ccc(Cl)cc4)CC3)cc2)cc1S(=O)(=O)C(F)(F)F [AZD4320] + Cc1cc2ncnn2cc1Nc1ncc2c(n1)n(C1CCOCC1)c(=O)n2C [AZD7648] (first compound max 1 µM, 7x7, partner max 10 µM)	0.0839	0.382	0.822	0.516	0.0576	0.286	0.343	0.159	0.981	0.363		
Cc1cc2ncnn2cc1Nc1ncc2c(n1)n(C1CCOCC1)c(=O)n2C [AZD7648] + C=CCn1c(=O)c2cnc(Nc3ccc(N4CCN(C)CC4)cc3)nc2n1-c1cccc(C(C)(C)O)n1 [AZD1775] (first compound max 10 µM, partner max 1 µM)		0.649	0.808		0.636	0.706	0.668	0.327	1	0.864	-0.0899	0.601
Cc1cc2ncnn2cc1Nc1ncc2c(n1)n(C1CCOCC1)c(=O)n2C [AZD7648] + CCN(CCO)CCCOc1ccc2c(Nc3cc(CC(=O)Nc4cccc(F)c4)[nH]n3)ncnc2c1 [AZD2811] (first compound max 10 µM, 7x7, partner max 1 µM)		0.436	0.985		0.285	0.514	0.449	0.291	0.764	0.913	0.0621	0.756
Cc1cc2ncnn2cc1Nc1ncc2c(n1)n(C1CCOCC1)c(=O)n2C [AZD7648] + CN(C)CCCOc1ccc(-c2ccc3ncc4c(c3c2)n(C2CCOCC2)c(=O)n4C)cn1 [AZD0156] (first compound max 10 µM, 7x7, partner max 1 µM)		0.399	0.312		0.204	0.402	0.478	0.209	0.323	0.375	-0.0328	0.296
Cc1cc2ncnn2cc1Nc1ncc2c(n1)n(C1CCOCC1)c(=O)n2C [AZD7648] + C[C@@H]1COCCN1C2=NC(=NC(=C2)C3(CC3)[S@](=N)(=O)C)C4=C5C=CNC5=NC=C4 [AZD6738] (first compound max 10 µM, 7x7, partner max 10 µM)		0.788	0.759		0.575	0.681	0.768	0.347	0.757	0.793	-0.0692	0.722
Cc1cc2ncnn2cc1Nc1ncc2c(n1)n(C1CCOCC1)c(=O)n2C [AZD7648] + O=C(c1cc(Cc2n[nH]c(=O)c3ccccc23)ccc1F)N1CCN(C(=O)C2CC2)CC1 [Olaparib] (first compound max 10 µM, 7x7, partner max 10 µM)		0.322	0.365		0.22	0.11	0.479	0.225	0.255	0.243	-0.0244	0.316
Cc1nc(Nc2ncc(C(=O)Nc3c(C)cccc3Cl)s2)cc(N2CCN(CCO)CC2)n1 [Dasatinib] + CC(=O)Nc1cccc(-n2c(=O)n(C3CC3)c(=O)c3c(Nc4ccc(I)cc4F)n(C)c(=O)c(C)c32)c1 [Trametinib] (first compound max 2 µM, 7x7, partner max 1 µM)	-0.0223	0.545	0.0954	0.128	0.241	0.476	1	0.487	0.607	0.629		
COc1cc2ncnc(Nc3ccc(F)c(Cl)c3)c2cc1OCCCN1CCOCC1 [Gefitinib] + CC(C)n1c(=O)n(C)c2cnc3cc(F)c(-c4ccc(OCCCN5CCCCC5)nc4)cc3c21 [AZD1390] (first compound max 10 µM, 7x7, partner max 0.3 µM)	-0.0419	0.109	0.139	0.0382	0.0627	0.106	0.32	0.0368	0.266	0.42		
COc1cc2c(cc1OCCCCCOc1cc3c(cc1OC)C(=O)N1C=C(C)C[C@H]1C=N3)N=C[C@@H]1CC(C)=CN1C2=O [SG3199] + O=C(c1cc(Cc2n[nH]c(=O)c3ccccc23)ccc1F)N1CCN(C(=O)C2CC2)CC1 [Olaparib] (first compound max 0.001 µM, 7x7, partner max 10 µM)		0.23	0.196		0.159	0.104	0.187	0.134	0.283	0.143	0.0077	0.144
C[C@@H](c1ccc2nccn2c1)n1nnc2ncc(-c3cnn(C)c3)nc21 [Savolitinib] + CC1(C)CCC(CN2CCN(c3ccc(C(=O)NS(=O)(=O)c4ccc(NCC5CCOCC5)c([N+](=O)[O-])c4)c(Oc4cnc5[nH]ccc5c4)c3)CC2)=C(c2ccc(Cl)cc2)C1 [Venetoclax] (first compound max 1 µM, 7x7, partner max 1 µM)	-0.0471	0.181	0.13	0.0992	0.147	0.202	0.232	0.159	0.196	0.154		
C[C@@H](c1ccc2nccn2c1)n1nnc2ncc(-c3cnn(C)c3)nc21 [Savolitinib] + Cc1c2c(nn1C)CSCc1cc(n(C)n1)CSc1cc(c3ccccc3c1)OCCCc1c(C(=O)O)n(C)c3c-2c(Cl)ccc13 [AZD5991] (first compound max 1 µM, 7x7, partner max 1 µM)	-0.0343	0.189	0.351	0.976	0.362	0.167	0.228	0.2	0.383	0.181		

Reference: the supplement of paper PMC11061612
